Source: patent US12234211B2, “Cycloolefin substituted heteroaromatic compounds and their use” (HUTCHISON MEDIPHARMA LIMITED, priority 2017, dated 2025)
pIC50: −log10 of the molar value.

Target: T1, IDH2-R140Q (Homo sapiens, UniProt P48735, R140Q)
T1 construct: expressed in transfected cells
T1 sequence (P48735 40-452 R140Q): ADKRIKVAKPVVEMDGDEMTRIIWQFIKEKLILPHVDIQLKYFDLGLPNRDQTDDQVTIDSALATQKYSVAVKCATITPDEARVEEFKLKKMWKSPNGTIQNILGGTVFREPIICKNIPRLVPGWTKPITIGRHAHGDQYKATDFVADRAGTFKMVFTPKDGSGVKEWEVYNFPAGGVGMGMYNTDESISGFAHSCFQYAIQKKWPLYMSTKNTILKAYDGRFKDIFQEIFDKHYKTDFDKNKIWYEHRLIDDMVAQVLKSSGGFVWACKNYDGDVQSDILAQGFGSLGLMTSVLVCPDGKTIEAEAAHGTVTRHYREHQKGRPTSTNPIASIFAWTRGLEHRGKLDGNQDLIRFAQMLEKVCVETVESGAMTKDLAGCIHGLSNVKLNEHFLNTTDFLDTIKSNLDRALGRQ
Assay: Fluorescent determination of IDH2-R140Q cell activity (2-HG in U87MGR140Q cells)
Type: cell-based
Conditions: 72 hours incubation, read-out: IC50 (2-HG inhibition)
Experimental: Enzyme reaction solution: 1 mM nicotinamide adenine dinucleotide (NAD), 0.6 ng/μL D-2-hydroxyglutarate dehydrogenase (D2HGDH), 0.8 U/mL lipoamidase dehydrogenase (Diaphorase) and 60 μM Resazurin in 40 mM Tris.HCl pH 8.8 assay buffer.
Standard curve stock solution: The standard of 2-HG sodium salt was serially diluted in serum-free MEM medium to make a standard curve stock solution.
100 μL of U87MGR140Q cells were seeded at a density of 6×10^4/mL per well in a 96-well plate a.
From each well of 96-well plate a, 50 μL of the culture supernatant was transferred to the corresponding well of 96-well plate b; at the same time, 50 μL of standard curve stocking solution was added to other wells of 96-well plate b. Then 10 μl of 360 mM hydrochloric acid was added to all the wells. After shaking and mixing, the plate was placed on ice for 10 minutes, and then 10 μl of 420 mM Tris-base was added. After shaking and mixing, the plate was placed on ice for additional 5 minutes. Then the plate was centrifuged at 2500 rpm for 10 minutes.
After centrifuging, from each well of 96-well plate b, 20 μL of the supernatant was transferred to 96-well plate c. An additional 80 μL of the enzyme reaction solution was added to each well and incubated at 25° C. for 90 minutes.
A standard curve of the fluorescence value vs. the corresponding 2-HG concentration was made, and the 2-HG concentration corresponding to each concentration point of the compound was calculated, then the inhibition ratio was calculated, and the data was analyzed using XLfit5 (ID Business Solutions Limited) software to obtain the IC50 value.
The inhibition ratio was calculated as follows: Inhibition Ratio (IH %)=(1-2-HG concentration of test compound treated cells/2-HG concentration of control cells)×100%.

Row | Compound | pIC50
1 | [2H]C1(O)CCCC(c2nc(NC(C)C)nc(N[C@H](C)C(F)(F)F)n2)=C1F (mixture of isomers) [Compound 23] | 6.72
2 | [2H]C1(O)CCCC(c2nc(N[C@H](C)C(F)(F)F)nc(NC([2H])(C([2H])([2H])[2H])C([2H])([2H])[2H])n2)=C1F (mixture of isomers) [Compound 29] | 6.75
3 | [2H]C1(O)CCCC(c2nc(N[C@@H](C)C(F)(F)F)nc(NC([2H])(C([2H])([2H])[2H])C([2H])([2H])[2H])n2)=C1F (mixture of isomers) [Compound 30] | 6.64
4 | CC(C)Nc1nc(N[C@H](C)C(F)(F)F)nc(C2=CC(F)CCC2)n1 (mixture of isomers) [Compound 36] | 6.74
5 | CC(C)Nc1nc(N[C@H](C)C(F)(F)F)nc(C2=CCCC(F)C2)n1 (mixture of isomers) [Compound 37] | 5.72
6 | CC(C)Nc1nc(N[C@H](C)C(F)(F)F)nc(C2=CCC(F)CC2)n1 (mixture of isomers) [Compound 38] | 5.79
7 | CC(C)Nc1nc(N[C@H](C)C(F)(F)F)nc(C2=CCCC(O)C2)n1 (mixture of isomers) [Compound 144, 3-(4-(Isopropylamino)-6-(((R)-1,1,1-trifluoropropan-2-yl)amino)-1,3,5-triazin-2-yl)cyclohex-3-en-1-ol] | 5.56
8 | C[C@@H](Nc1nc(NCC(F)(F)F)nc(C2=CC(O)CCC2)n1)C(F)(F)F (mixture of isomers) [Compound 154] | 6.69
9 | C[C@@H](Nc1nc(NC2(C)CC2)nc(C2=CC(O)CCC2)n1)C(F)(F)F (mixture of isomers) [Compound 156] | 6.18
10 | C[C@@H](Nc1nc(NC2CC3(C2)CC(F)(F)C3)nc(C2=C(F)C(O)CCC2)n1)C(F)(F)F (mixture of isomers) [Compound 160] | 6.74
11 | C[C@@H](Nc1nc(NC2CC2)nc(C2=C(F)C(O)CCC2)n1)C(F)(F)F (mixture of isomers) [Compound 162] | 6.75
12 | CC[C@@H](C)Nc1nc(N[C@H](C)C(F)(F)F)nc(C2=C(F)C(O)CCC2)n1 (mixture of isomers) [Compound 164] | 6.75
13 | CC[C@H](C)Nc1nc(N[C@H](C)C(F)(F)F)nc(C2=C(F)C(O)CCC2)n1 (mixture of isomers) [Compound 165] | 6.70
14 | C[C@@H](Nc1nc(NOC(C)(C)C)nc(C2=C(F)C(O)CCC2)n1)C(F)(F)F (mixture of isomers) [Compound 172] | 6.46
15 | CC(C)CNc1nc(N[C@H](C)C(F)(F)F)nc(C2=C(F)C(O)CCC2)n1 (mixture of isomers) [Compound 12] | 6.70
16 | C[C@@H](Nc1nc(N[C@@H]2C[C@@H]2F)nc(C2=C(F)C(O)CCC2)n1)C(F)(F)F (mixture of isomers) [Compound 16] | 6.49
17 | CC(C)Nc1nc(N[C@H](C)C(F)(F)F)nc(C2=C(Cl)C(O)CCC2)n1 (mixture of isomers) [Compound 17] | 5.79
18 | CC(C)Nc1nc(N[C@H](C)C(F)(F)F)nc(C2=C(F)C(F)CCC2)n1 (mixture of isomers) [Compound 35, 6-(2,3-Difluorocyclohex-1-en-1-yl)-N^2-isopropyl-N^4-((R)-1,1,1-trifluoropropan-2-yl)-1,3,5-triazine-2,4-diamine] | 6.23

Row | Compound | pIC50
19 | C[C@@H](Nc1nc(NC2CC2)nc(C2=CC(O)CCC2)n1)C(F)(F)F (mixture of isomers) [Compound 129] | 6.77
20 | C[C@@H](Nc1nc(NCC(C)(C)O)nc(C2=CC(O)CCC2)n1)C(F)(F)F (mixture of isomers) [Compound 131] | 5.55
21 | CCCNc1nc(N[C@H](C)C(F)(F)F)nc(C2=CC(O)CCC2)n1 (mixture of isomers) [Compound 133] | 6.76
22 | CCNc1nc(N[C@H](C)C(F)(F)F)nc(C2=CC(O)CCC2)n1 (mixture of isomers) [Compound 135] | 6.47
23 | CC(C)C(=O)Nc1nc(N[C@H](C)C(F)(F)F)nc(C2=CC(O)CCC2)n1 (mixture of isomers) [Compound 137] | 5.81
24 | COC1C=C(c2nc(N[C@H](C)C(F)(F)F)nc(N[C@H](C)C(F)(F)F)n2)CCC1 (mixture of isomers) [Compound 140, 6-(3-Methoxycyclohex-1-en-1-yl)-N^2,N^4-bis((R)-1,1,1-trifluoropropan-2-yl)-1,3,5-triazine-2,4-diamine] | 5.62
25 | C[C@@H](Nc1nc(NC2CCC(F)(F)C2)nc(C2=CC(O)CCC2)n1)C(F)(F)F (mixture of isomers) [Compound 176] | 6.21
26 | CC(CO)Nc1nc(N[C@H](C)C(F)(F)F)nc(C2=CC(O)CCC2)n1 (mixture of isomers) [Compound 184] | 5.42
27 | [2H]C1(O)CCCCC(c2nc(NC3CC(F)(F)C3)nc(NC3CC(F)(F)C3)n2)=C1F (stereo not shown) [Compound 22] | 6.47
28 | CC(C)Nc1nc(NC(C)C)nc(C2=C(F)C(O)CCC2)n1 (stereo not shown) [Compound 25] | 6.18
29 | C[C@H](CF)Nc1nc(NC2CC(F)(F)C2)nc(C2=C(F)C(O)CCC2)n1 (stereo partly shown) [Compound 43] | 6.48
30 | C[C@@H](Nc1nc(Nc2ccn3ccnc3c2)nc(C2=C(F)C(O)CCC2)n1)C(F)(F)F (stereo partly shown) [Compound 44] | 5.50
31 | OC1CCCC(c2nc(NC3CC3)nc(NC3CC(F)(F)C3)n2)=C1F (stereo not shown) [Compound 49] | 6.68
32 | CC(C)Nc1nc(Nc2cnn(C)c2)nc(C2=C(F)C(O)CCC2)n1 (stereo not shown) [Compound 57] | 5.66
33 | CC(C)Nc1nc(Nc2ccn3nccc3c2)nc(C2=C(F)C(O)CCC2)n1 (stereo not shown) [Compound 59] | 6.66
34 | C[C@H](Nc1nc(N[C@@H](C)C(F)(F)F)nc(C2=C(F)C(O)CCC2)n1)C(F)(F)F (stereo partly shown) [Compound 69] | 6.76
35 | CC(C)Nc1nc(N[C@H](C)C(F)(F)F)nc(C2=CC(=O)CCC2)n1 [Compound 122, (R)-3-(4-(isopropylamino)-6-((1,1,1-trifluoropropan-2-yl)amino)-1,3,5-triazin-2-yl)cyclohex-2-en-1-one] | 5.87
36 | CC(C)Nc1nc(N[C@H](C)C(F)(F)F)nc(C2=CC(F)(F)CCC2)n1 [Compound 138, (R)-6-(3,3-difluorocyclohex-1-en-1-yl)-N^2-isopropyl-N^4-(1,1,1-trifluoropropan-2-yl)-1,3,5-triazine-2,4-diamine] | 6.30

Continued, values first:

Row | pIC50 | Compound
37 | 7.19 | [2H]C1([2H])CCC(c2nc(NC3CC(F)(F)C3)nc(N[C@@H](C)C(F)(F)F)n2)=C(F)C1([2H])O (mixture of isomers) [Compound 90]
38 | 6.99 | C[C@@H](Nc1nc(NCC(F)(F)F)nc(C2=C(F)C(O)C(F)(F)CC2)n1)C(F)(F)F (mixture of isomers) [Compound 208]
39 | 7.03 | CCCNc1nc(N[C@H](C)C(F)(F)F)nc(C2=C(F)C(O)C(F)(F)CC2)n1 (mixture of isomers) [Compound 248]
40 | 6.95 | C[C@@H](Nc1nc(NC2CCCC2)nc(C2=C(F)C(O)CCC2)n1)C(F)(F)F (mixture of isomers) [Compound 10]
41 | 6.82 | C[C@@H](Nc1nc(NC2CC23CC3)nc(C2=C(F)C(O)CCC2)n1)C(F)(F)F (mixture of isomers) [Compound 42]
42 | 6.84 | [2H]C1([2H])CCC(c2nc(NC(C)C)nc(NC3CC(F)(F)C3)n2)=C(F)C1([2H])O (racemic) [Compound 92]
43 | 6.83 | OC1CCCC(c2nc(NC3CC3)nc(NC3CC(F)(F)C3)n2)=C1F (stereo not shown) [Compound 27]
44 | 6.91 | CC(C)Nc1nc(NC2CC(F)(F)C2)nc(C2=C(F)C(O)CCC2)n1 (stereo not shown) [Compound 28]
45 | 7.14 | CC1CC1Nc1nc(NC2CC(F)(F)C2)nc(C2=C(F)C(O)CCC2)n1 (stereo not shown) [Compound 50]
46 | 6.88 | [2H]C([2H])([2H])C([2H])(Nc1nc(N[C@@H](C)C(F)(F)F)nc(C2=C(F)C(O)CCC2)n1)C([2H])([2H])[2H] (stereo partly shown) [Compound 53]
47 | 6.99 | [2H]C([2H])([2H])C([2H])(Nc1nc(NC2CC(F)(F)C2)nc(C2=C(F)C(O)CCC2)n1)C([2H])([2H])[2H] (stereo not shown) [Compound 55]
48 | 7.03 | [2H]C1([2H])CCC(c2nc(NC(C)C)nc(NC3CC(F)(F)C3)n2)=C(F)C1O (stereo not shown) [Compound 56]
49 | 6.77 | [2H]C([2H])([2H])Nc1nc(Nc2ccnc(C(F)(F)F)c2)nc(C2=C(F)C(O)CCC2)n1 (stereo not shown) [Compound 58]
50 | 6.95 | CC(C)(O)CNc1nc(Nc2ccnc(C(F)(F)F)c2)nc(C2=C(F)C(O)CCC2)n1 (stereo not shown) [Compound 70]
51 | 7.38 | OC1CCCC(c2nc(Nc3ccc(F)cc3)nc(Nc3ccnc(C(F)(F)F)c3)n2)=C1F (stereo not shown) [Compound 72]
52 | 7.68 | [2H]C1([2H])CCC(c2nc(Nc3ccnc(C(F)(F)F)c3)nc(NC([2H])(C([2H])([2H])[2H])C([2H])([2H])[2H])n2)=C(F)C1O (stereo not shown) [Compound 86]
